Assays:
[1] = target: T1, glucocorticoid receptor (GR) (Homo sapiens, UniProt P04150); assay: SelectScreen cell-based GR antagonist assay (UAS-bla HEK 293T, beta-lactamase reporter, dexamethasone as agonist)
T1 construct: the UAS-driven beta-lactamase is the reporter
T1 sequence (P04150 524-777 limits assumed): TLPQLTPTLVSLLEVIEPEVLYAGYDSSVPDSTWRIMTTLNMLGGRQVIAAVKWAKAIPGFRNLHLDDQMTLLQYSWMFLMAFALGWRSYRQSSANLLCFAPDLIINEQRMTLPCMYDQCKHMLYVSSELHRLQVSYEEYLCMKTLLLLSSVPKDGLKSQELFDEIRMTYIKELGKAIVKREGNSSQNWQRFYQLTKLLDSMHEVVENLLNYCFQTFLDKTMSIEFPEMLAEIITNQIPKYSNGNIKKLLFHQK
Method: An antagonist assay for GR was performed by SelectScreen® Cell-Based Nuclear Receptor Profiling Service of Life Technologies. […] Detection method is based on a beta-lactamase reporter gene (bla) combined with a FRET-enabled substrate. The data obtained in these assays was modelled to a sigmoidal dose response curve.

[2] = Observation of precipitation and aggregates during nanoparticle preparation; details: after addition of the xanthophyll to the albumin solution
Method: To prepare bovine serum albumin (BSA)—astaxanthin nanoparticles, albumin (20 mg, 5 mg or 1 mg depending on the protein:carotenoid ratio) was dissolved in 1 mL deionized water and 1 mg of astaxanthin was dissolved in 0.25 mL THF. The astaxanthin solution was slowly added to the BSA solution under stirring and nitrogen atmosphere. When the addition of carotene was completed the solution was stirred at room temperature for 10 additional minutes. The organic solvent (THF) in the mixed solution was slowly removed by speed vacuum at 25° C. Distillation was completed when the total solution volume was reduced by ⅔. Finally, the nanoparticle solutions were filtered through a 0.22 μm PES membrane filter and immediately stored in the dark at 4° C.

[3] = at 10 μM, against dexamethasone

Row | GR inhibition [1, 3] | Compound | antagonist effect on GR ([1]; against dexamethasone) | further results
1 | 80% | CC(=O)O[C@H]1CC(C)(C)C(=C=C/C(C)=C/C=C/C(C)=C/C=C/C=C(C)/C=C/C=C(\C)C(=O)/C=C2/C(C)(C)C[C@H](O)C[C@@]2(C)O)[C@](C)(O)C1 [isofucoxanthin] | – | –
2 | above 85% | CC(=C/C=C/C(C)=C/C=C/C=C(C)/C=C/C=C(\C)C=C=C1C(C)(C)C[C@H](O)C[C@@]1(C)O)/C=C/[C@@]12O[C@]1(C)C[C@@H](O)CC2(C)C [Neoxanthin, neoxanthin] | – | –

The remaining lines, values behind:

Row | Compound | GR inhibition [1, 3] | antagonist effect on GR ([1]; against dexamethasone) | further results
3 | CC1=C[C@H](O)CC(C)(C)[C@H]1/C=C/C(C)=C/C=C/C(C)=C/C=C/C=C(C)/C=C/C=C(C)/C=C/C1=C(C)C[C@@H](O)CC1(C)C [lutein] | – | – | inhibition at 10 µM ([1]; HEK-293T, at 10 μM, against dexamethasone): 80%
4 | CC1=C(/C=C/C(C)=C/C=C/C(C)=C/C=C/C=C(C)/C=C/C=C(C)/C=C/C2=C(C)C(=O)[C@@H](O)CC2(C)C)C(C)(C)C[C@H](O)C1=O [astaxanthin, reference compound] | – | neither compound exercised an antagonist effect on GR | –
5 | CC1=C(/C=C/C(C)=C/C=C/C(C)=C/C=C/C=C(C)/C=C/C=C(C)/C=C/C2=C(C)CCCC2(C)C)C(C)(C)CCC1 [beta-carotene, reference compound] | – | neither compound exercised an antagonist effect on GR | –
6 | fucoxanthin | 50% | – | formation of aggregates with poor solubility during nanoparticle preparation [2]: not observed; concentration from which it acts as GR antagonist ([1]; against the agonist dexamethasone): 30 nM

Source: patent US11234941B2, “Oil-free carotenoid composition” (GAT Therapeutics S.L., priority 2017, dated 2022)
